Measured values published in patent US20060014712A1, “Controlled delivery of therapeutic compounds” (CeMines, Inc., priority 2004, published 2006).

Tests used:
Assay type in all cases: cell-based, human
[1] = test system: WM 266-4; assay: WST-1 test (mitochondrial activity); conditions: conc 10 µM, untreated = 1
Method: (§1) Methods. Human melanoma cell lines SK-MEL-28 and WM 2664 and mouse melanoma cell line B16 were obtained from the American Tissue Culture Collection (ATCC). Cells were cultured according to recommendations of ATCC (DMEM, 10% FCS, penicillin+streptomycin) and used in experiments after two passages in the laboratory. Cells were grown in 24 well plates, each treatment in triplicates. Cells were plated 16 hours prior treatments started. Peptides were added to the media, and media was changed every day during 7 day experiment. […] Methods. Human melanoma cell lines SK-MEL-28 and WM 266-4 were obtained from the American Tissue Culture Collection (ATCC) and were cultured according to recommendations of ATCC (DMEM, 10% FCS, penicillin+streptomycin). Human keratinocytes were obtained from Clonetics and cultured according to manufacturers protocol. Cells were used in experiments after two passages in the laboratory. Cells were grown in 24 well plates, each treatment in triplicates. Cells were plated 16 hours prior treatments started. Peptides were added to the media, and media was changed every day during 7 day experiment. […] WST-1 test was performed to measure mitochondrial activity, which can also be used as a measure of cell number.

[2] = test system: SK-MEL-28; assay: Cell counting after 7 day peptide treatment; conditions: conc 10 µM, start count 10
Method: (§2) The ability to block interaction of MITF, SOX10 and STAT3 with active transcriptional complex and inhibit proliferation and stimulate apoptosis of melanoma cells were tested on human melanoma cell lines SK-MEL-28 and WM 266-4, and mouse melanoma cell line B16. Methods. Human melanoma cell lines SK-MEL-28 and WM 2664 and mouse melanoma cell line B16 were obtained from the American Tissue Culture Collection (ATCC). Cells were cultured according to recommendations of ATCC (DMEM, 10% FCS, penicillin+streptomycin) and used in experiments after two passages in the laboratory. Cells were grown in 24 well plates, each treatment in triplicates. Cells were plated 16 hours prior treatments started. Peptides were added to the media, and media was changed every day during 7 day experiment. CPP concentration was 10 μM For cell counting, cells were trypsinized (0.25% Trypsin, 2 mM EDTA) in Ca^+2, Mg^+2 free PBS. Cells were precipitated and resuspended in 100 μl of PBS, and 5 μl were removed for counting Methods. Human melanoma cell lines SK-MEL-28 and WM 266-4 were obtained from the American Tissue Culture Collection (ATCC) and were cultured according to recommendations of ATCC (DMEM, 10% FCS, penicillin+streptomycin). Human keratinocytes were obtained from Clonetics and cultured according to manufacturers protocol. Cells were used in experiments after two passages in the laboratory. Cells were grown in 24 well plates, each treatment in triplicates. Cells were plated 16 hours prior treatments started. Peptides were added to the media, and media was changed every day during 7 day experiment. CPP concentration was 10 μM. For cell counting, cells were trypsinized (0.25% Trypsin, 2 mM EDTA) in Ca, Mg free PBS. Cells were precipitated and resuspended in 100 μl of PBS, and 5 μl were removed for counting.

[3] = test system: WM 266-4; assay: Cell counting after 7 day peptide treatment; conditions: conc 10 µM, start count 10
Method: as §2, with “CPP concentration was 10 μM For cell counting, cells were trypsinized (0.25% Trypsin, 2 mM EDTA) in Ca^+2, Mg^+2 free PBS.” left out, “CPP concentration was 10 μM.” left out

[4] = test system: SK-MEL-28; assay: WST-1 test (mitochondrial activity); conditions: conc 10 µM, untreated = 1
[5] = test system: WM 266-4; assay: Apoptosis, Annexin V-Cy3 Apoptosis Kit; conditions: conc 10 µM
Method: as §1, with “Apoptosis” for “WST-1 test”, “analyzed using Biovision Annexin V-Cy3 Apoptosis Kit according” for “performed”, “manufacturers protocols.” for “measure mitochondrial activity, which can also be used as a measure of cell number.”

Sequence	WST-1 7 d ([1]; CPP mimicking peptides)	Cell Count 7 d ([2]; CPP mimicking peptides)	Cell Count 7 d ([3]; CPP mimicking peptides)	WST-1 7 d ([4]; CPP mimicking peptides)	Apoptosis 7 d/% ([5]; CPP mimicking peptides)	WST-1 7 d ([1]; modified peptides)	Cell Count 7 d ([2]; modified (inhibitor/MMP2, MMP9 site) peptides)	Cell Count 7 d ([3]; modified peptides)	WST-1 7 d ([4]; modified peptides)	Apoptosis 7 d/% ([5]; modified peptides)
RPKKRKVRRRFNINDRIKELGTLIPKSNDPDMRWN [MITF-int1]	0.8	39	30	0.7	21%	–	–	–	–	–
RPKKRKVRRRVKRPMNAFMVWAQAARRKLADQY [SOX10-int1]	0.6	28	25	0.51	31%	–	–	–	–	–
TTGGSSPQGLEAKRPKKRKVRRRFNINDRIKELGTLIPKSNDPDMRWN [MITF-int1M]	–	–	–	–	–	0.8	42	25	0.81	21%
